Patent US8912209B2, “Rock inhibitors” (Amakem NV, priority 2010, dated 2014)

How the values were obtained:
[1] = biological target: T1, ROCK II (Homo sapiens, UniProt O75116); assay: ROCK II kinase inhibition, Method 1 Proqinase setup (33P radioisotopic protein kinase assay); assay type: biochemical; settings: 33P radioisotopic assay, 1 μM ATP, read-out: IC50 Meth. 1
T1 construct: purchased Proqinase
Description: A ^33P radioisotopic protein kinase assay is used to determine the IC50 for inhibiting ROCK II. A final 50 μl reaction cocktail, containing 60 mM HEPES-NaOH (pH 7.5), 3 mM MgCl2, 3 mM MnCl2, 3 μM Na-orthovanadate, 1.2 mM DTT, 1 μM ATP, 50 μg/ml PEG20.000, 1% (v/v) DMSO, 1 μM ATP (approx. 3×10^5 cpm ^33P-γ-ATP), the substrate (Substrate: S6 peptide—2000 ng/well) and recombinant protein kinase (0.5 nM-2.5 ng/well) is mixed on a shaker and incubated at 30° C. for 80 minutes. The reaction is stopped by the addition of 50 μl of a 2% solution of H3PO4 and mixed on a shaker. After washing twice with 200 μl of a 0.9% solution of NaCl, the dry plate is counted.

[2] = biological target: T2, ROCKα/ROCKII (Homo sapiens, UniProt O75116); assay: ROCK inhibition, Method 2 fluorescence polarization (FP) assay, ROCK IMAP Kit; assay type: biochemical; settings: 10 μM ATP, read-out: IC50 Meth. 2
T2 construct: purchased Upstate Biotechnology 14-451
T2 sequence (O75116 whole entry): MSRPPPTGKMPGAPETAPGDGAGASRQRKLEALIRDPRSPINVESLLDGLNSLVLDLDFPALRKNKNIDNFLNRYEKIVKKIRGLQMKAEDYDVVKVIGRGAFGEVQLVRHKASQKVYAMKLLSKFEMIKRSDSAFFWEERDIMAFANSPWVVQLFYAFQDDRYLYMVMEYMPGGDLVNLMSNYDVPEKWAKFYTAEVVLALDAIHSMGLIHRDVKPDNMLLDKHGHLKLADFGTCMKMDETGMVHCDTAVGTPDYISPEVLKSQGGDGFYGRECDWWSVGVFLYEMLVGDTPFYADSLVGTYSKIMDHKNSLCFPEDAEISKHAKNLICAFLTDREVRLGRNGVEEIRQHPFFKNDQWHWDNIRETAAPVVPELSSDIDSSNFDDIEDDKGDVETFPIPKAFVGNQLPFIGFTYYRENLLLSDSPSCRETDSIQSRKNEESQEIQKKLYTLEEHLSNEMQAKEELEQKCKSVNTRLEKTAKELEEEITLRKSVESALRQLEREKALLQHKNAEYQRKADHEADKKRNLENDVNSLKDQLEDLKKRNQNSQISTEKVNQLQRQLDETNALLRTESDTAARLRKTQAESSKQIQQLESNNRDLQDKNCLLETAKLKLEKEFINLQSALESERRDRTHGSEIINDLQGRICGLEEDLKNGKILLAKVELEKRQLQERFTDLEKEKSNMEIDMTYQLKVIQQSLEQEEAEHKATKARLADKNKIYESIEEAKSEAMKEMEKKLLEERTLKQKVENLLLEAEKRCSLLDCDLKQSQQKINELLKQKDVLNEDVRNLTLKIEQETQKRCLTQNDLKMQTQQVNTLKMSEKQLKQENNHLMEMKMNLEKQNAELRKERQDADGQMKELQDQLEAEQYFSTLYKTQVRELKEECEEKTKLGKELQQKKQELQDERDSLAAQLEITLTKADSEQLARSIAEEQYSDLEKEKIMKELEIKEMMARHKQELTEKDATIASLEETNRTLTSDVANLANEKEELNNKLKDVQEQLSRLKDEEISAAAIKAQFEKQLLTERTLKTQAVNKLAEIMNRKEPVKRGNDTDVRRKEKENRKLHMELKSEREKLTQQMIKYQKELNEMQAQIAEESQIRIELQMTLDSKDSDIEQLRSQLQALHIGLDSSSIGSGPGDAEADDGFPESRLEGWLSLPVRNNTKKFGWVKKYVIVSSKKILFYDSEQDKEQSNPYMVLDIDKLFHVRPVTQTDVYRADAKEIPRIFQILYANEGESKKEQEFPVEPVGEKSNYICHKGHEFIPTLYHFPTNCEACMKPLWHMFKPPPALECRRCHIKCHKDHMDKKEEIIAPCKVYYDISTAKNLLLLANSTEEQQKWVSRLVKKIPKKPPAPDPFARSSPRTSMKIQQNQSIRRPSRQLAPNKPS
Description: The inhibition assays were performed with a fluorescence polarization (FP) assay using the commercially available ROCK IMAP Kit from Molecular Devices (Product ID. No. R8093), essentially in accordance with the protocol supplied by the manufacturer. […] The enzyme mix ROCKα/ROCKII was obtained from Upstate Biotechnology (Product ID No 14-451).
In summary, all compounds were screened in the wells of a 384 well plate for enzymatic inhibition with concentrations varying from 100 μM to 0.3 nM using a stepwise 3 (or 2)-fold dilution.
To perform the assay, 1 μl of a solution of the compound to be tested in DMSO (at each concentration) was added to 2 μl of a solution of the enzyme in 10 mM Tris-HCl, 10 mM MgCl2, 0.1% BSA, 0.05% NaN3, pH 7,2. The final concentration of the enzyme was 2.6 nM.
After incubating for 30 minutes at RT, 2 μl of a mixture of ATP and the protein substrate in 10 mM Tris-HCl, 10 mM MgCl2, 0.1% BSA, 0.05% NaN3, pH 7.2 was added. The final concentration of the ATP was 10 μM and final concentration of protein substrate was 0.2 μM.
After incubating for 60 minutes at RT, 12 μl of the IMAP Binding Solution (mix of the IMAP Binding Buffer A (1×) and the IMAP Binding Reagent (from the ROCK IMAP kit)) was added.
The mixture thus obtained (total volume: 17 μl) was incubated for 60 minutes at RT, upon which the fluorescence polarization was measured using an automated plate reader (Perkin Elmer, Model Envision 2100-0010 HTS) with FP filters: excitation filter FITC FP 480 and emission filters FITC FP P-pol 535 and FITC FP S-pol 535 (Perkin-Elmer). The results were fitted to a curve using the XL-Fit algorithm and IC50 values were calculated for each fitted curve, again using the XL-Fit algorithm.

T1 sequence (O75116 whole entry): as above

| SMILES | IC50 [1] | IC50 [2] |
| --- | --- | --- |
| CCCOC(=O)c1cc2c(-c3cc(C(=O)Nc4ccncc4)ccc3C(C)N)cccc2[nH]1 (centres unmarked) [Compound 172, 4-[2-(1-Amino-ethyl)-5-(pyridin-4-ylcarbamoyl)-phenyl]-1H-indole-2-carboxylic acid propyl ester] | 100 to 1000 nM | 100 to 1000 nM |
| CC(N)c1ccc(C(=O)Nc2ccncc2F)cc1-c1cccc(C(=O)Oc2ccccc2)c1 (centres unmarked) [Compound 71, 2′-(1-Amino-ethyl)-5′-(3-fluoro-pyridin-4-ylcarbamoyl)-biphenyl-3-carboxylic acid phenyl ester] | 100 to 1000 nM | 100 to 1000 nM |
| CCCOC(=O)c1cccc(-c2cc(C(=O)Nc3ccncc3)ccc2C(C)N)c1 (centres unmarked) [Compound 11, 2′-(1-Amino-ethyl)-5′-(pyridin-4-ylcarbamoyl)-biphenyl-3-carboxylic acid propyl ester] | < 100 nM | < 100 nM |
| CC(C)COC(=O)c1cccc(-c2cc(C(=O)Nc3ccncc3F)ccc2C(C)N)c1 (centres unmarked) [Compound 28, 2′-(1-Amino-ethyl)-5′-(3-fluoro-pyridin-4-ylcarbamoyl)-biphenyl-3-carboxylic acid isobutyl ester] | 100 to 1000 nM | 100 to 1000 nM |
| CC(N)c1ccc(C(=O)Nc2ccncc2)cc1-c1cccc(C(=O)Oc2ccccc2)c1 (centres unmarked) [Compound 70, 2′-(1-Amino-ethyl)-5′-(pyridin-4-ylcarbamoyl)-biphenyl-3-carboxylic acid phenyl ester] | < 100 nM | < 100 nM |
| NCc1ccc(C(=O)Nc2ccncc2)cc1-c1cccc(C(=O)OC2CCOCC2)c1 [Compound 43, 2′-Aminomethyl-5′-(pyridin-4-ylcarbamoyl)-biphenyl-3-carboxylic acid tetrahydro-pyran-4-yl ester] | 100 to 1000 nM |  |
| NCc1ccc(C(=O)Nc2ccncc2)cc1-c1cccc(C(=O)OC2CCC2)c1 [Compound 31, 2′-Aminomethyl-5′-(pyridin-4-ylcarbamoyl)-biphenyl-3-carboxylic acid cyclobutyl ester] | 100 to 1000 nM |  |
| N#CCCOC(=O)Cc1cccc(-c2cc(C(=O)Nc3ccncc3F)ccc2CN)c1 [Compound 194] | 1000 to 10000 nM |  |
| NCc1ccc(C(=O)Nc2ccncc2F)cc1-c1cccc(CC(=O)OCCO)c1 [Compound 195] | 1000 to 10000 nM |  |
| NCc1ccc(C(=O)Nc2ccncc2F)cc1-c1cccc(C(=O)NC2CCSC2=O)c1 (centres unmarked) [Compound 179] | 100 to 1000 nM |  |
| CN1CCC(OC(=O)c2cccc(-c3cc(C(=O)Nc4ccncc4)ccc3CN)c2)CC1 [Compound 48, 2′-Aminomethyl-5′-(pyridin-4-ylcarbamoyl)-biphenyl-3-carboxylic acid 1-methyl-piperidin-4-yl ester] | 100 to 1000 nM |  |
| NCc1ccc(C(=O)Nc2ccncc2F)cc1-c1cccc(C(=O)OCCC23CC4CC(CC(C4)C2)C3)c1 [Compound 189] | 100 to 1000 nM |  |
| COCCOC(=O)c1cccc(-c2cc(C(=O)Nc3ccncc3)ccc2CN)c1 [Compound 41, 2′-Aminomethyl-5′-(pyridin-4-ylcarbamoyl)-biphenyl-3-carboxylic acid 2-methoxy-ethyl ester] | 100 to 1000 nM |  |
| CCOC(=O)c1cccc(-c2cc(C(=O)Nc3ccncc3)ccc2CN)c1 [Compound 7, 2′-Aminomethyl-5′-(pyridin-4-ylcarbamoyl)-biphenyl-3-carboxylic acid ethyl ester] | 100 to 1000 nM |  |
| NCc1ccc(C(=O)Nc2ccncc2)cc1-c1cccc(C(=O)OC2CCCC2)c1 [Compound 32, 2′-Aminomethyl-5′-(pyridin-4-ylcarbamoyl)-biphenyl-3-carboxylic acid cyclopentyl ester] | 100 to 1000 nM |  |

More lines, now with the values ahead:

| IC50 [1] | IC50 [2] | SMILES |
| --- | --- | --- |
| < 100 nM | < 100 nM | CCCCOC(=O)c1cccc(-c2cc(C(=O)Nc3ccncc3)ccc2C(C)N)c1 (centres unmarked) [Compound 13, 2′-(1-Amino-ethyl)-5′-(pyridin-4-ylcarbamoyl)-biphenyl-3-carboxylic acid butyl ester] |
| 100 to 1000 nM | < 100 nM | CC(N)c1ccc(C(=O)Nc2ccncc2)cc1-c1cccc(C(=O)OCCF)c1 (centres unmarked) [Compound 60, 2′-(1-Amino-ethyl)-5′-(pyridin-4-ylcarbamoyl)-biphenyl-3-carboxylic acid 2-fluoro-ethyl ester] |
| 100 to 1000 nM | 100 to 1000 nM | COC(=O)c1cc(-c2cc(C(=O)Nc3ccncc3)ccc2C(C)N)c[nH]1 (centres unmarked) [Compound 168, 4-[2-(1-Amino-ethyl)-5-(pyridin-4-ylcarbamoyl)-phenyl]-1H-pyrrole-2-carboxylic acid methyl ester] |
| < 100 nM | 100 to 1000 nM | CC(N)c1ccc(C(=O)Nc2ccncc2)cc1-c1cccc(C(=O)OCc2ccoc2)c1 (centres unmarked) [Compound 90, 2′-(1-Amino-ethyl)-5′-(pyridin-4-ylcarbamoyl)-biphenyl-3-carboxylic acid furan-3-ylmethyl ester] |
| 100 to 1000 nM | < 100 nM | COC(=O)c1cccc(-c2cc(C(=O)Nc3ccncc3F)ccc2C(C)N)c1 (centres unmarked) [Compound 5, 2′-(1-Amino-ethyl)-5′-(3-fluoro-pyridin-4-ylcarbamoyl)-biphenyl-3-carboxylic acid methyl ester] |
| 100 to 1000 nM | < 100 nM | CCCOC(=O)c1cccc(-c2cc(C(=O)Nc3ccncc3F)ccc2C(C)N)c1 (centres unmarked) [Compound 12, 2′-(1-Amino-ethyl)-5′-(3-fluoro-pyridin-4-ylcarbamoyl)-biphenyl-3-carboxylic acid propyl ester] |
| 1000 to 10000 nM |  | COC(=O)C1CCN(C(=O)c2cccc(-c3cc(C(=O)Nc4ccncc4)ccc3CN)c2)C1 (centres unmarked) [Compound 127, 1-[2′-Aminomethyl-5′-(pyridin-4-ylcarbamoyl)-biphenyl-3-carbonyl]-pyrrolidine-3-carboxylic acid methyl ester] |
| 100 to 1000 nM |  | NCc1ccc(C(=O)Nc2ccncc2F)cc1-c1cccc(C(=O)OCCF)c1 [Compound 178] |
| 100 to 1000 nM |  | CCSC(=O)COc1cccc(-c2cc(C(=O)Nc3ccncc3)ccc2CN)c1 [Compound 143, [2′-Aminomethyl-5′-(pyridin-4-ylcarbamoyl)-biphenyl-3-yloxy]-thioacetic acid S-ethyl ester] |
| < 100 nM |  | NCc1ccc(C(=O)Nc2ccncc2)cc1-c1cccc(C(=O)OCC2COc3ccccc3O2)c1 (centres unmarked) [Compound 55, 2′-Aminomethyl-5′-(pyridin-4-ylcarbamoyl)-biphenyl-3-carboxylic acid 2,3-dihydro-benzo[1,4]dioxin-2-ylmethyl ester] |
| 100 to 1000 nM |  | NCc1ccc(C(=O)Nc2ccncc2F)cc1-c1cccc(OCC(=O)OCC2CCCC2)c1 [Compound 191] |
| < 100 nM |  | COC(=O)CNC(=O)c1cccc(-c2cc(C(=O)Nc3ccncc3)ccc2CN)c1 [Compound 102, {[2′-Aminomethyl-5′-(pyridin-4-ylcarbamoyl)-biphenyl-3-carbonyl]-amino}-acetic acid methyl ester] |
| 100 to 1000 nM |  | NCc1ccc(C(=O)Nc2ccncc2F)cc1-c1cccc(C(=O)OCC2CCCO2)c1 (centres unmarked) [Compound 187] |
| 100 to 1000 nM |  | COC(=O)c1cc2c(-c3cc(C(=O)Nc4ccncc4)ccc3C(C)N)cccc2[nH]1 (centres unmarked) [Compound 171, 4-[2-(1-Amino-ethyl)-5-(pyridin-4-ylcarbamoyl)-phenyl]-1H-indole-2-carboxylic acid methyl ester] |
| 100 to 1000 nM |  | CC(C)OC(=O)c1cccc(-c2cc(C(=O)Nc3ccncc3)ccc2CN)c1 [Compound 26, 2′-Aminomethyl-5′-(pyridin-4-ylcarbamoyl)-biphenyl-3-carboxylic acid isopropyl ester] |
| 100 to 1000 nM |  | NCc1ccc(C(=O)Nc2ccncc2)cc1-c1cccc(C(=O)NCCC2COC(=O)O2)c1 (centres unmarked) [Compound 113, 6-Aminomethyl-biphenyl-3,3′-dicarboxylic acid 3′-{[2-(2-oxo-[1,3]dioxolan-4-yl)-ethyl]-amide} 3-pyridin-4-ylamide] |
| 100 to 1000 nM |  | NCc1ccc(C(=O)Nc2ccncc2F)cc1-c1cccc(C(=O)OCc2ccccc2)c1 [Compound 180] |
| < 100 nM |  | COC(=O)c1cccc(-c2cc(C(=O)Nc3ccncc3)ccc2CN)c1 [Compound 1, 2′-Aminomethyl-5′-(pyridin-4-ylcarbamoyl)-biphenyl-3-carboxylic acid methyl ester] |
